Source: patent publication EP4567034A1 (Korea Institute of Science and Technology, priority 2022, dated 2024)

Assays:
blood lymphocyte count = experiment: Decrease in blood lymphocyte count in normal rats after oral administration; assay type: in vivo, rat; settings: 10 mg/kg for the compounds, within 5 hours after drug administration, percentage based on count before administration
Procedure: In order to confirm the effect of administration of the four compounds selected from Experimental Example 1, Compounds 13, 62, 64, and 66, on the decrease in the blood lymphocyte count in rodents in vivo, blood was collected before and after compound administration, and the decrease in the blood lymphocyte count over time was measured using an automatic blood counter, and the results are shown in FIG. 1.
Specifically, 5-week-old male rats (rat, wister, 160-180 g) were acclimated in a temperature- and humidity-controlled breeding room, and the four selected compounds were dissolved in 5% DMSO and 10% Kolliphor HS15 aqueous solution and orally administered at a dose of 10 mg/kg. Blood was collected from the tail vein with a syringe during inhalation anesthesia with 4% isoflurane and transferred to an EDTA-coated tube. The lymphocyte count was measured from the collected blood using an automatic blood counter. As a positive control group, rats administered with fingolimod, a known S1P1 receptor modulator, were used.
As in the positive control group, fingolimod-administered group, it was confirmed that the group administered with the compounds of the Examples within 5 hours after drug administration induced a decrease in the lymphocyte count by 50% or less.

S1P1 receptor [1] = molecular target: T1, S1P1 receptor (Homo sapiens, UniProt P21453); experiment: S1P1 β-arrestin recruitment assay in S1P1 overexpressing cell line (DiscoverX), luminescence; assay type: cell-based
S1P1 receptor [2] = molecular target: T1, S1P1 receptor; experiment: S1P1 receptor internalization (endosome formation) assay in S1P1 overexpressing cell line (DiscoverX), luminescence; assay type: cell-based
[3] = S1P1 overexpressing cell line, β-arrestin recruitment, luminescence, read-out: β-arrestin EC50
[4] = S1P1 overexpressing cell line, endosome formation by internalization, luminescence, read-out: Internalization EC50

T1 sequence (P21453 whole entry): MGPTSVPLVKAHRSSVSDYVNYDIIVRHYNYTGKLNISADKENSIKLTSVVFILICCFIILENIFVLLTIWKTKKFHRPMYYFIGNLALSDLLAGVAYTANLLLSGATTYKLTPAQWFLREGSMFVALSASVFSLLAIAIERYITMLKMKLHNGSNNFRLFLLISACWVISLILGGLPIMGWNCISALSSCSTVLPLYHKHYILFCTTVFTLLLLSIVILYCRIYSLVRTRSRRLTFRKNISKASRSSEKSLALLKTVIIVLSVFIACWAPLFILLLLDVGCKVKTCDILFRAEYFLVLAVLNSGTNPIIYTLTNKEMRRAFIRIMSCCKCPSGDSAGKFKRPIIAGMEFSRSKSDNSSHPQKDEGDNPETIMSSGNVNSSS

Row | Structure (SMILES) | decrease in the lymphocyte count (blood lymphocyte count) | EC50 (S1P1 receptor [1]) | EC50 (S1P1 receptor [2]) | EC50 (S1P1 receptor [1]; [3]) | EC50 (S1P1 receptor [2]; [4])
1 | CCCCCCCCc1ccc(CCC(N)(CO)CO)cc1 [fingolimod] | ≤ 50% | – | – | – | –
2 | COC(=O)CCNCc1ccc(-c2cnc(-c3ccc(OC(C)C)c(Cl)c3)[se]2)cc1 [Compound 37, Methyl 3-(4-(2-(3-chloro-4-isopropoxyphenyl)-1,3-selenazole-5-yl)benzylamino)propanoate] | – | 7.88 nM | 13.5 nM | – | –
3 | CC(C)(C)OC(=O)C1CN(Cc2ccc(-c3cnc(-c4ccc(C(C)(C)C)cc4)[se]3)cc2)C1 [Compound 4, Tert-butyl 1-(4-(2-(4-tert-butylphenyl)-1,3-selenazole-5-yl)benzyl)azetidine-3-carboxylate] | – | 70.1 nM | 141 nM | – | –
4 | CCOc1ccc(-c2ncc(-c3ccc(CN4CC(C(=O)OC)C4)cc3)[se]2)cc1Cl [Compound 14, Methyl 1-(4-(2-(3-chloro-4-ethoxyphenyl)-1,3-selenazole-5-yl)benzyl)azetidine-3-carboxylate] | – | 1.13 nM | 4.91 nM | – | –
5 | COC(=O)C1CN(Cc2ccc(-c3cnc(-c4ccc(OC(C)C)c(C#N)c4)[se]3)cc2)C1 [Compound 5] | – | 3.64 nM | 0.87 nM | – | –
6 | COC(=O)C1CCN(Cc2ccc(-c3cnc(-c4ccc(C(C)(C)C)cc4)[se]3)cc2)C1 (stereo not drawn) [Compound 30, Methyl 1-(4-(2-(4-tert-butylphenyl)-1,3-selenazole-5-yl)benzyl)pyrrolidine-3-carboxylate] | – | 8.5 nM | 205 nM | – | –
7 | COC(=O)C1CN(Cc2ccc(-c3cnc(-c4ccc(OC(C)C)c(C(F)(F)F)c4)[se]3)cc2)C1 [Compound 9, Methyl 1-(4-(2-(4-isopropoxy-3-(trifluoromethyl)phenyl)-1,3-selenazole-5-yl)benzyl)azetidine-3-carboxylate] | – | 1.82 nM | 1.59 nM | – | –
8 | CC(C)Oc1ccc(-c2ncc(-c3ccc(CN4CC(C(=O)O)C4)cc3)[se]2)cc1C(F)(F)F [Compound 10, 1-(4-(2-(4-isopropoxy-3-(trifluoromethyl)phenyl)-1,3-selenazole-5-yl)benzyl)azetidine-3-carboxylic acid] | – | 0.45 nM | 0.36 nM | – | –
9 | COC(=O)C1CN(Cc2ccc(-c3ncc(-c4ccc(C(C)(C)C)cc4)[se]3)cc2)C1 [Compound 39, Methyl 1-(4-(5-(4-tert-butylphenyl)-1,3-selenazole-2-yl)benzyl)azetidine-3-carboxylate] | – | 39.2 nM | 160 nM | – | –
10 | CC(C)Oc1ccc(-c2ncc(-c3ccc(CN4CC(C(=O)O)C4)cc3)[se]2)cc1C#N [Compound 6] | – | 0.37 nM | 0.065 nM | – | –
11 | CCOC(=O)C1CN(Cc2ccc(-c3cnc(-c4ccc(OC(C)C)c(C#N)c4)[se]3)cc2)C1 [Compound 7, Ethyl 1-(4-(2-(3-cyano-4-isopropoxyphenyl)-1,3-selenazole-5-yl)benzyl)azetidine-3-carboxylate] | – | 1.17 nM | 4.33 nM | – | –
12 | CC(C)Oc1ccc(-c2ncc(-c3ccc(CN4CC(C(=O)OC(C)(C)C)C4)cc3)[se]2)cc1C#N [Compound 8, Tert-butyl 1-(4-(2-(3-cyano-4-isopropoxyphenyl)-1,3-selenazole-5-yl)benzyl)azetidine-3-carboxylate] | – | 29.9 nM | 33.1 nM | – | –
13 | COC(=O)C1CN(Cc2ccc(-c3cnc(-c4cccc(OC(C)C)c4)[se]3)cc2)C1 [Compound 21, Methyl 1-(4-(2-(3-isopropoxyphenyl)-1,3-selenazole-5-yl)benzyl)azetidine-3-carboxylate] | – | – | – | 503 nM | 379 nM
14 | COC(=O)C1CN(Cc2ccc(-c3cnc(-c4ccc(OC)cc4)[se]3)cc2)C1 [Compound 16, Methyl 1-(4-(2-(4-methoxyphenyl)-1,3-selenazole-5-yl)benzyl)azetidine-3-carboxylate] | – | 48.5 nM | 139 nM | – | –
15 | O=C(O)C1CN(Cc2ccc(-c3cnc(-c4cccnc4)[se]3)cc2)C1 [Compound 29, Sodium 1-(4-(2-(pyridine-3-yl)-1,3-selenazole-5-yl)benzyl)azetidine-3-carboxylate] | – | – | – | 635 nM | 379 nM
16 | CC(C)Oc1ccc(-c2ncc(-c3ccc(CN4CC(C(=O)O)C4)cc3)[se]2)cc1 [Compound 19, 1-(4-(2-(4-isopropoxyphenyl)-1,3-selenazole-5-yl)benzyl)azetidine-3-carboxylic acid] | – | 1.14 nM | 0.97 nM | – | –
17 | COc1ccc(-c2ncc(-c3ccc(CN4CC(C(=O)O)C4)cc3)[se]2)cc1 [Compound 17, 1-(4-(2-(4-methoxyphenyl)-1,3-selenazole-5-yl)benzyl)azetidine-3-carboxylic acid] | – | 25.9 nM | 81.3 nM | – | –
18 | COC(=O)C1CN(Cc2ccc(-c3cnc(-c4ccccn4)[se]3)cc2)C1 [Compound 26, Methyl 1-(4-(2-(pyridine-2-yl)-1,3-selenazole-5-yl)benzyl)azetidine-3-carboxylate] | – | – | – | > 1000 nM | > 1000 nM
19 | CCOC(=O)CNCc1ccc(-c2cnc(-c3ccc(OC(C)C)c(Cl)c3)[se]2)cc1 [Compound 35, Ethyl 2-(4-(2-(3-chloro-4-isopropoxyphenyl)-1,3-selenazole-5-yl)benzylamino)acetate] | – | 21 nM | 11.5 nM | – | –
20 | CC(C)Oc1ccccc1-c1ncc(-c2ccc(CN3CC(C(=O)O)C3)cc2)[se]1 [Compound 24, 1-(4-(2-(2-isopropoxyphenyl)-1,3-selenazole-5-yl)benzyl)azetidine-3-carboxylic acid] | – | – | – | > 1000 nM | > 1000 nM
